Reference: patent US11547705B2, “Combination of a PD-1 antagonist and a VEGF-R/FGFR/RET tyrosine kinase inhibitor for treating cancer” (MERCK SHARP & DOHME LLC, priority 2015, dated 2023)

Assays:
[1] = test system: mouse lung cancer cell line LL/2 (LLc1); test: Anti-tumor effect in subcutaneous LL/2 (LLc1) transplantation model; type: in vivo; conditions: C57BL/6J mice, lenvatinib oral once daily, anti-PD-1 antibody 500 μg/head i.p. every 3 days
Method: A DMEM culture medium (high-glucose type) containing 10% fetal bovine serum (FBS) and penicillin/streptomycin was used to culture a mouse lung cancer cell line LL/2 (LLc1) (ATCC number: CRL-1642). Next, phosphate buffered saline (PBS) was used to prepare a cell suspension having a concentration of 2.0×10^7 cells/mL. The cell suspension was subcutaneously transplanted at a dose of 0.1 mL on the right lateral side of the body of each of 7-week-old mice (C57BL/6J, female, Charles River Laboratories Japan Inc.). Eight (8) days after the transplantation, an electronic digital caliper (Digimatic™ Caliper; Mitutoyo Corporation) was used to measure the short and long diameters of a tumor of interest. The following equation was used to calculate the tumor volume TV. Tumor Volume TV (mm^3)=Long Diameter (mm)×Short Diameter (mm)×Short Diameter (mm)/2.
(§1) Based on the tumor volumes on the first day of administration, grouping was carried out such that the average values of the tumor volumes were almost the same. A 1 mg/ml solution of lenvatinib was prepared using water for injection (Otsuka Pharmaceutical Co., Ltd.) and was orally administered at a dose of 0.2 mL/20 g mouse body weight once daily for 14 days. 0.2 mL of an administration sample containing 2.5 mg/mL of an anti-mouse-PD-1 antibody (Clone: RMP1-14, BioXCell, Catalog#: BE0146), which had been diluted with PBS, was intraperitoneally administered (at a dosage of 500 μg/head) once every 3 days a total of 5 times (day 1, day 4, day 7, day 10, and day 13, with the day of the grouping set to day 1). To the control group, Otsuka water for injection was orally administered at a dose of 0.2 mL/20 g mouse body weight once daily for 14 days. Each group including 5 mice was used to conduct the experiment. The day (day 15) after the final administration, the respective tumor volumes (TV) were determined for the control group, the lenvatinib administration group, the anti-mouse-PD-1 antibody administration group, and the combination administration group. The values obtained by logarithmically transforming the tumor volumes were used to carry out statistical analysis.

[2] = test system: mouse colon carcinoma cell line CT26.WT; test: Anti-tumor effect in subcutaneous CT26.WT transplantation model, lenvatinib mesilate and anti-PD-L1 antibody; type: in vivo; conditions: BALB/c mice, lenvatinib mesilate oral once daily, anti-PD-L1 antibody 500 μg/head i.p. every 3 days
Method: A RPMI1640 culture medium containing 10% FBS and penicillin/streptomycin was used to culture a mouse colon carcinoma cell line CT26.WT (ATCC number: CRL-2638). Hank's Balanced Salt Solution (HBSS) was used to prepare a cell suspension having a concentration of 3.0×10^7 cells/mL. The cell suspension was subcutaneously transplanted at a dose of 0.1 mL on the right lateral side of the body of each of 7-week-old mice (BALB/cAnNCrlCrlj, female, Charles River Laboratories Japan Inc.). 8 days after the transplantation, an electronic digital caliper (Digimatic™ Caliper; Mitutoyo Corporation) was used to measure the short and long diameters of a tumor of interest. The following equation was used to calculate the tumor volume TV. Tumor Volume TV (mm^3)=Long Diameter (mm)×Short Diameter (mm)×Short Diameter (mm)/2.
as §1, with “of lenvatinib mesilate was prepared” for “of lenvatinib was prepared”, “of an anti-mouse-PD-L1 antibody, which had” for “of an anti-mouse-PD-1 antibody (Clone: RMP1-14, BioXCell, Catalog#: BE0146), which had”, “tumor volumes TV were determined” for “tumor volumes (TV) were determined”, “group, the anti-mouse-PD-L1 antibody administration” for “group, the anti-mouse-PD-1 antibody administration”

VEGFR2 = VEGFR2 (Homo sapiens, UniProt P35968); conditions: according to kinetic analysis; background statement; cited from earlier work
[3] = Day 1 (day of grouping, first day of administration)

VEGFR2, sequence (P35968 20-1356, species assumed): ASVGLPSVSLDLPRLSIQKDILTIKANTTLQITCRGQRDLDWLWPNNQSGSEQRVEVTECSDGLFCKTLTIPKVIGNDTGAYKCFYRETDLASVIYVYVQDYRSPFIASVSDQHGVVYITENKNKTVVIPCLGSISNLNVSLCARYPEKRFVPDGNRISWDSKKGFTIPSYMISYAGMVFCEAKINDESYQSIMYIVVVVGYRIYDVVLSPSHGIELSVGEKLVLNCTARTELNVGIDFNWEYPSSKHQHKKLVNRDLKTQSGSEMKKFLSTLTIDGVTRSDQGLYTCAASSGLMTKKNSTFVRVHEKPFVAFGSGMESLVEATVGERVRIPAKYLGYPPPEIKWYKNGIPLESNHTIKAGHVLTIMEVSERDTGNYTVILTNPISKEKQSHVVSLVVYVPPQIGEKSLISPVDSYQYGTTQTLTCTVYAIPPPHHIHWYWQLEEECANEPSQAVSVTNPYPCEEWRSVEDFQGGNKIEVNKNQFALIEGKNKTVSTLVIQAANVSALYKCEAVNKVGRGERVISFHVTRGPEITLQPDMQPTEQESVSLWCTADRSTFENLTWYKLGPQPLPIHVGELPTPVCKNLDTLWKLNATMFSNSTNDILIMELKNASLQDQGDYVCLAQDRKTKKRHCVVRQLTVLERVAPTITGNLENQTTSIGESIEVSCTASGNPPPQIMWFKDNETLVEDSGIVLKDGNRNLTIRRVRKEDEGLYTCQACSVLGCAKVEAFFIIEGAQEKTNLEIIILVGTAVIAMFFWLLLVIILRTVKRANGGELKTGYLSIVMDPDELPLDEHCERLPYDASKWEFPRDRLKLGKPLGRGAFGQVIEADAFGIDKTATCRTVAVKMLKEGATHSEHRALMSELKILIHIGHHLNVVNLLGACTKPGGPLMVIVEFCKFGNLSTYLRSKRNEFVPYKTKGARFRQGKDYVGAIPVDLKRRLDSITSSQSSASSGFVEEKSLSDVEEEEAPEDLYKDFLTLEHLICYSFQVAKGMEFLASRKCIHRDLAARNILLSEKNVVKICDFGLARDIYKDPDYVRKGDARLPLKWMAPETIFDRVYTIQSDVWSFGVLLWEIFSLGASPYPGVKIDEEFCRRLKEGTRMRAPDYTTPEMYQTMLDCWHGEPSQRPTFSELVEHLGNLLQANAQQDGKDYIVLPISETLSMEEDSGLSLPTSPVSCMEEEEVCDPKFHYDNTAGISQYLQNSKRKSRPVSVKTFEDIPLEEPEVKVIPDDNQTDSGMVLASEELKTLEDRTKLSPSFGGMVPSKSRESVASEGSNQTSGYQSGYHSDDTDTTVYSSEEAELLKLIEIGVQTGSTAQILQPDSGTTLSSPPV

## COc1cc2nccc(Oc3ccc(NC(=O)NC4CC4)c(Cl)c3)c2cc1C(N)=O [Lenvatinib, 4-[3-chloro-4-(cyclopropylaminocarbonyl)aminophenoxy]-7-methoxy-6-quinolinecarboxamide]
[1]; [3]
  Tumor Volume TV: 100 mm^3
[1]; Day 4
  Tumor Volume TV: 243 mm^3
[1]; Day 8
  Tumor Volume TV: 394 mm^3
[1]; Day 10
  Tumor Volume TV: 553 mm^3
[1]; Day 13
  Tumor Volume TV: 837 mm^3
[1]; Day 15 (day after final administration)
  Tumor Volume TV: 1143 mm^3
[2]; [3]
  Tumor Volume TV: 154 mm^3
[2]; Day 4
  Tumor Volume TV: 472 mm^3
[2]; Day 8
  Tumor Volume TV: 1172 mm^3
[2]; Day 11
  Tumor Volume TV: 1555 mm^3
VEGFR2
  inhibition of kinase activity: rapid and potent inhibition of kinase activity
